Laboratory results reported in patent publication US12194080B2, “Methods for identification, assessment, prevention, and treatment of metabolic disorders using PM20D1 and N-lipidated amino acids” (Dana-Farber Cancer Institute, Inc., priority 2015, dated 2025).

Experiments:
[1] = Plasma AST, ALT and cytokine array after chronic treatment of DIO mice; assay type: in vivo, mouse; settings: 9 days chronic treatment, versus vehicle
Procedure: FIG. 14 includes 11 panels, identified as panels A, B, C, D, E, F, G, H, I, J, and K, which show the effects of chronic C20:4-Gly administration to mice. Panels A-F show the change in body weight (Panel A), daily and cumulative food intake (Panels B and C), and total body weight at day 7 (Panel D), VO2 (Panel E), and movement (Panel F) of 14 week DIO mice treated daily with vehicle or C20:4-Gly (20 mg/kg/day, i.p.). For Panels E and F, measurements were recorded for 2 days following 7 days chronic treatment with vehicle or C20:4-Gly (20 mg/kg/day, i.p.); during this time daily administration of the indicated compounds continued. […] Panels G-J show plasma AST (Panel G), ALT (Panel H), and plasma cytokine array profiling (Panels I and J) following 9 days chronic treatment with vehicle or C20:4-Gly (20 mg/kg/day, i.p.). For Panels G-J, plasma was collected 24 hr following the last dose of vehicle or C20:4-Gly. For Panels A-H, n=8/group, mean±SEM, *p<0.05, **p<0.01. For Panels I and J, plasma from 4 mice/group were pooled for each array.

[2] = system: differentiated primary iWAT cells; assay: Cellular oxygen consumption rate (Seahorse XF24), differentiated primary iWAT adipocytes; assay type: cell-based, mouse; settings: 50 μM, in presence of oligomycin (1 μM)
Procedure: C2C12, U2O5, and 293A cells were cultured in DMEM with 10% FBS and pen/strep. Primary inguinal (iWAT) and brown (BAT) adipocytes were obtained as follows. The stromal-vascular fraction of inguinal (iWAT) pad from 4-12 week old male mice was dissected, minced, and digested for 45 min. at 37° C. in PBS containing 10 mM CaCl2, 2.4 U/ml dispase II (Roche), and 1.5 U/ml collagenase D (Roche). The stromal-vascular fraction of brown fat (BAT) pads from newborn (P1-P14) pups was dissected, minced, and digested for 45 min at 37° C. in PBS containing 1.3 mM CaCl2, 120 mM NaCl, 5 mM KCl, 5 mM glucose, 100 mM HEPES, 4% BSA, and 1.5 mg/ml collagenase B (Roche). Digested tissue was diluted with adipocyte culture media (DMEM/F-12, GlutaMAX™ supplement, Life Technologies, with 10% FBS and pen/strep) and centrifuged (600×g for 10 min.). The pellet was resuspended in 10 ml adipocyte culture media, strained through a 40 μm filter, and plated. Differentiation was induced by application of an adipogenic cocktail containing 5 μg/ml insulin (Sigma), 5 μM dexamethasone (Sigma), 250 μM isobutylmethylxanthine (Sigma), and 1 μM rosiglitazone (Cayman) for 2 days. Two days after induction, cells were maintained in adipocyte culture media containing 5 μg/ml insulin and 1 μM rosiglitazone.
(§1) Cellular oxygen consumption rates were determined using an XF24 Extracellular Flux Analyzer (Seahorse Biosciences). Oligomycin was purchased from EMD Millipore, and FCCP and rotenone were purchased from Sigma. C2C12 or U2OS cells were seeded at 30,000 or 50,000 cells/well, respectively in an XF24 cell culture microplate (V7-PS, Seahorse Bioscience) and analyzed the following day. Primary iWAT or BAT adipocytes were seeded at 15,000 cells/well, differentiation was induced the following day as described, and the cells were analyzed on day 5. On the day of analysis, the cells were washed once with Seahorse respiration buffer (8.3 g/1 DMEM, 1.8 g/l NaCl, 1 mM pyruvate, 20 mM glucose, pen/strep), placed in 0.5 ml Seahorse respiration buffer, and incubated in a CO2-free incubator for 1 hr. Port injection solutions were prepared as follows (final concentrations in assay in parentheses): 10 μM oligomycin (1 μM final), […] amino acid (50 μM final), 2 μM FCCP (0.2 μM final), and 30 μM rotenone (3 μM final). The Seahorse program was run as follows: basal measurement, 3 cycles; inject port A (oligomycin), 3 cycles; inject port B (compounds), 8 cycles; inject port C (FCCP), 3 cycles; inject port D (rotenone), 3 cycles. Each cycle consisted of mix 4 min, wait 0 min, and measure 2 min. For data expressed as a percentage of oligomycin-treated basal, the respiration at cycle 6 was normalized to 100%, and the maximum respiration at any time point between cycles 7 and 15 inclusive was used.

[3] = system: primary inguinal fat cells, primary BAT cells, C2C12 cells, and U2OS cells; assay: Uncoupled respiration cellular assays (variety of cell types); assay type: cell-based; settings: N-acyl amino acids at 10-100 uM
Procedure: as §1

[4] = system: Diet induced obese (DIO) mice; assay: Chronic daily i.p. administration of N-acyl amino acids to DIO mice (body weight, food intake, body composition, GTT); assay type: in vivo, mouse; settings: chronic treatment, C18:1-Phe 30 or 50 mg/kg/day, C20:4-Gly 15 mg/kg/day, i.p.
Procedure: (§2) Animal experiments were performed according to procedures approved by the Beth Israel Deaconess Medical Center IACUC. Mice were maintained in 12 h light-dark cycles at 22° C. and fed a standard irradiated rodent chow diet. All experiments on wild-type mice were performed with male C57BL/6 mice purchased from Jackson Laboratories, except for the AAV experiments, which were performed with male C57BL/6 mice from Charles River. UCP1-KO (stock #017476) and 16-20 week DIO mice (stock #380050) were obtained from Jackson Laboratories. For AAV injection experiments, mice were gently warmed using a 250 W clear infrared heat lamp, immobilized, and injected via tail vein with 10^10 virus/mouse (diluted in saline) in a total volume of 100 μl/mouse. Where indicated, mice were placed on high-fat diet (60% fat, Research Diets). For cold exposure experiments, mice were group housed and placed at 4° C. for the indicated times. For the preparation of C18:1-Phe for in vivo injections, compounds were dissolved in 18:1:1 v/v/v saline:Kolliphor® EL (Sigma Aldrich):DMSO and sonicated until homogeneous. Mice were administered compounds at 5 μl/g body weight at the indicated doses. For all injection experiments, mice were mock injected with saline daily for 3 days prior to the start of the experiments. For glucose tolerance tests (GTTs), mice received their final dose of compound the day prior to the assay and were then fasted overnight. Glucose was administered at 1.5 g/kg.
(§3) Energy expenditure, O2 consumption, CO2 production, respiratory exchange ratio, total locomotor activity, and food intake measurements were made with a 16-cage Columbus Instruments Oxymax Comprehensive Lab Animal Monitoring System (CLAMS) at ambient room temperature (21-23° C.). Mice were acclimated for one day in metabolic cages prior to data collection. Whole-body composition was assessed with an EchoMRI™ 3-in-1 on conscious mice.

[5] = system: Diet induced obese (DIO) mice; assay: Indirect calorimetry (CLAMS) of high fat diet/DIO mice treated with N-acyl amino acids; assay type: in vivo, mouse; settings: daily i.p.: C18:1-Leu 25, C18:1-Phe 30, C20:4-Gly 15 mg/kg/day
Procedure: as §2, §3

[6] = system: primary BAT adipocytes from UCP1-KO mice; assay: Cellular oxygen consumption rate, primary BAT adipocytes from UCP1-KO mice; assay type: cell-based, mouse; settings: UCP1-KO cells, 50 μM
Procedure: (§4) C2C12, U2O5, and 293A cells were cultured in DMEM with 10% FBS and pen/strep. Primary inguinal (iWAT) and brown (BAT) adipocytes were obtained as follows. The stromal-vascular fraction of inguinal (iWAT) pad from 4-12 week old male mice was dissected, minced, and digested for 45 min. at 37° C. in PBS containing 10 mM CaCl2, 2.4 U/ml dispase II (Roche), and 1.5 U/ml collagenase D (Roche). The stromal-vascular fraction of brown fat (BAT) pads from newborn (P1-P14) pups was dissected, minced, and digested for 45 min at 37° C. in PBS containing 1.3 mM CaCl2, 120 mM NaCl, 5 mM KCl, 5 mM glucose, 100 mM HEPES, 4% BSA, and 1.5 mg/ml collagenase B (Roche). […]
(§5) Cellular oxygen consumption rates were determined using an XF24 Extracellular Flux Analyzer (Seahorse Biosciences). […] C2C12 or U2OS cells were seeded at 30,000 or 50,000 cells/well, respectively in an XF24 cell culture microplate (V7-PS, Seahorse Bioscience) and analyzed the following day. Primary iWAT or BAT adipocytes were seeded at 15,000 cells/well, differentiation was induced the following day as described, and the cells were analyzed on day 5. […] For data expressed as a percentage of oligomycin-treated basal, the respiration at cycle 6 was normalized to 100%, and the maximum respiration at any time point between cycles 7 and 15 inclusive was used.

[7] = system: primary BAT adipocytes from UCP1-WT mice; assay: Cellular oxygen consumption rate, primary BAT adipocytes from UCP1-WT mice; assay type: cell-based, mouse; settings: UCP1-WT cells, 50 μM
Procedure: as §4, §5

human PM20D1 [8] = target: T1, human PM20D1 (Homo sapiens, UniProt Q6GTS8); assay: In vitro N-acyl amino acid synthase activity of human PM20D1; assay type: biochemical; settings: purified human PM20D1-flag, oleate 1.5 mM, head group 100 μM
T1 construct: host or cells: 293A cells, transient transfection; purified from conditioned medium
T1 sequence (Q6GTS8 26-502): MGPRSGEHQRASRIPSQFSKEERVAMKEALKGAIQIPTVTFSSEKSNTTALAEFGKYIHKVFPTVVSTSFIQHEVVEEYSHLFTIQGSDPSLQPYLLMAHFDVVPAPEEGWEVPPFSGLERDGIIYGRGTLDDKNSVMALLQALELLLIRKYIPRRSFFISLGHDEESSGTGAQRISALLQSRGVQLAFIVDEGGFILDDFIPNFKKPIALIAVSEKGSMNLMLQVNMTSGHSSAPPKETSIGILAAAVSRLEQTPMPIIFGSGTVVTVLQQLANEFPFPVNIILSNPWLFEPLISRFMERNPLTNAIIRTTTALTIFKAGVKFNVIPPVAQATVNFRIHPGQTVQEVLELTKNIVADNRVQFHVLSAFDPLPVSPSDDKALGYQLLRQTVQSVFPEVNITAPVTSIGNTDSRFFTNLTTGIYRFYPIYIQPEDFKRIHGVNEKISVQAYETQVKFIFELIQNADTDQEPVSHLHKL
Procedure: (§6) The concentrated media was centrifuged to remove debris (600×g, 10 min, 4° C.) and the supernatant containing PM20D1-flag was decanted into a new tube. PM20D1-Flag was immunoaffinity purified overnight at 4° C. from the concentrated media using magnetic Flag-M2 beads (Sigma Aldrich). The beads were collected, washed three times in PBS, eluted with 3× Flag peptide ([…] in PBS, Sigma Aldrich), aliquoted, and stored at −80° C. For the purification of human PM20D1-flag, hPM20D1-flag plasmid (Origene) was transiently transfected into 293A cells. After two days, the media was changed, harvested 24 h later, concentrated, and purified exactly as described above.
(§7) In vitro PM20D1-catalyzed synthesis of N-acyl amino acids was measured by incubating purified PM20D1 protein with oleate (1.5 mM) and phenylalanine (0.1 mM) in PBS (to 100 μl final volume) at 37° C. for 1.5 hrs. In vitro PM20D1-catalyzed N-acyl amino acid hydrolysis was measured by incubating purified PM20D1 protein with the indicated N-acyl amino acid (0.1 mM) in PBS (to 100 μl final volume) at 37° C. for 1.5 hrs. Reactions were terminated by placing the vials at −80° C. and the products generated in vitro were analyzed by mass spectroscopy (MS).
(§8) Briefly, frozen serum (30 μl) for polar metabolomic analyses were extracted in 160 μl of 1:1 acetonitrile/methanol with inclusion of internal standard D3, ^15N-serine (1 nmol). […]

human PM20D1 [9] = target: T1, human PM20D1; assay: In vitro N-acyl amino acid hydrolase activity of human PM20D1; assay type: biochemical; settings: purified human PM20D1-flag, substrate 100 μM
Procedure: as §6, §7, §8

CCCCC/C=C\C/C=C\C/C=C\C/C=C\CCCC(=O)NCC(=O)O [C20:4-Gly, N-arachidonoyl glycine]
plasma ALT [1]: no sigificant elevations | plasma AST [1]: no sigificant elevations | plasma cytokines [1]: no sigificant elevations | maximal OCR versus DMSO at the same time point [2]: 285% | maximal OCR versus oligomycin-treated basal respiration [2]: 295% | uncoupled respiration in cells [3]: increased uncoupled respiration | food intake [4]: reduced food intake | VO2 [5]: significantly augmented | movement [5]: no effects

CCCCC/C=C\C/C=C\C/C=C\C/C=C\CCCC(=O)N[C@@H](Cc1ccccc1)C(=O)O [C20:4-Phe, N-arachidonoyl phenylalanine]
maximal OCR versus DMSO at the same time point [2]: 214% | maximal OCR versus oligomycin-treated basal respiration [2]: 243% | maximal OCR versus the oligomycin-treated basal respiration [6]: 214% | uncoupled respiration in cells [3]: increased uncoupled respiration | maximal OCR versus the oligomycin-treated basal respiration [7]: 221%

B1: Human PM20D1: purified, recombinant human PM20D1-flag from transiently transfected 293A cells (protein, UniProt Q6GTS8 26-502, looked up)
N-fatty-acyl-amino acid …: T1 sequence (Q6GTS8 26-502)
modifications: FLAG tag
notes: purified, recombinant human PM20D1-flag from transiently transfected 293A cells
N-acyl amino acid synthase activity (human PM20D1 [8]): possessed N-acyl amino acid synthase and hydrolase activities | N-acyl amino acid hydrolase activity (human PM20D1 [9]): possessed N-acyl amino acid synthase and hydrolase activities
